Source: patent US20250042857A1, “SOS1 Inhibitor With Pyrido-Fused Six-Membered Ring Structure” (HAIHE BIOPHARMA CO., LTD., priority 2021, published 2025)

Tests used:
p-ERK of PC-9 cells = test: p-ERK HTRF assay in PC-9 cells; assay type: cell-based; settings: Homo sapiens, PC-9, 1 h, PC-9 lung cancer cells, 1 hour treatment, read-out: IC50, inhibitory activity on p-ERK of PC-9 cells
Protocol: IC50 Values of Compounds Determined by p-ERK HTRF Assay in PC-9 Cells
Experimental objective: an inhibitory effect of the test compounds on the phosphorylation of PC-9ERK of lung cancer cells at a cellular level was evaluated by detecting the phosphorylation of ERK.
• PRMI 1640 medium (Invitrogen-11875093) • 0.25% pancreatin (Invitrogen-25200056) • Phosphoric acid buffer salt solution (PBS, pH 7.4) (Invitrogen-10010023) • Double-antibody (PS) (Invitrogen-15140122) • Fetal bovine serum (FBS) (Gibco-10091148) • Trypan blue (Gibco-15250061) • 10-cm culture dish (Corning-430167) • 10-mL pipette (Costar-4488) • Pipettor (Sartorius-17009031) • 15-mL centrifuge tube (Corning-430052) • 50-mL centrifuge tube (Corning-430829) • Cryotube (Thermo-377267) • 1.5-mL EP tube (Axygen-MCT-150-C-S) • Cell incubator (Thermo-371) • Microscope (Olympus-CKX41) • Centrifuge (Flying Pigeon-TDL-80-2B) • Cell counter (Countstar-IC-1000) • Envision (Perkin Elmer) • Spark 10M (TECAN) • Phospho-ERK1/2 (Thr202/Tyr204) Experimental kit (Cisbio, Cat. No. 64AERPEG) • PC-9 cells: RPMI1640+10% FBS+1% PS
• 1) PBS, 0.25% pancreatin, and a cell culture medium were placed in a water-bath kettle at 37° C. for preheating; • 2) cells were observed under a microscope, a fusion degree was evaluated, and no bacterial and fungi pollution was confirmed; • 3) a culture solution was removed, the cells were washed with 5 mL of PBS and digested with 2 mL of the 0.25% trypsin, the digestion was terminated with 10 mL of the fresh cell culture medium, a culture dish was rinsed, and the cells were transferred to a 15-mL centrifuge tube; • 4) the collected cells were centrifuged at 1,000 rpm for 5 minutes; • 5) after the centrifugation, the supernatant was discarded, the cells were resuspended in 5 mL of the cell culture medium, 20 μL of the resuspended cells were aspirated, and the number and viability of viable cells were recorded; • 6) the cell culture medium was used and the cell density was adjusted (PC-9:10,000 cells/well, and 45 μL per well); • 7) in a 384-well plate, 45 μL of a cell suspension per well was transferred according to an experimental design figure; and • 8) the cells were incubated overnight at 37° C. and 5% CO2.
• 1) The compounds were diluted from the stock concentration to 10 mM with 100% DMSO (Trametinib was diluted to 1 mM), then 3-fold diluted into 10 points (5 μL of the diluted compounds with the concentration of 10 mM were transferred to 10 μL of the DMSO in an LDV plate), and centrifuged at 1,000 rpm/min for 1 minute; • 2) 5 μL of the diluted compounds of step 1) were transferred to an inter plate 1 containing 45 μL of the cell culture medium (the compounds were diluted from 1,000× to 100×); • 3) 5 μL of the diluted compounds of step 2) were transferred to an inter plate 2 containing 45 μL of the cell culture medium (the compounds were diluted from 100× to 10×); • 4) 5 μL of the compounds were pipetted from the inter plate 2 into a cell culture plate (the compounds were diluted from 10 folds to 1 fold), the final concentrations of the test compounds were 10,000 nM, 3333.33 nM, 1111.11 nM, 370.37 nM, 123.46 nM, 41.15 nM, 13.72 nM, 4.57 nM, 1.52 nM, and […], the solution was centrifuged at 1,000 rpm/min for 1 minute, and the final content of the DMSO was 0.1%; and • 5) the cells were treated in an incubator at 37° C. for 1 hour. […]

KRAS-G12C/SOS1 = KRAS-G12C/SOS1 (Homo sapiens (Human), UniProt Q07889); test: Detection of inhibitory effects of compounds on KRAS-G12C/SOS1 (KRASG12C/SOS binding kit, HTRF); settings: Em665/620, read-out: IC50, inhibitory activity on interaction of KRAS-G12C/SOS1
Source text: Experimental objective: The inhibitory effects of the tested compounds on KRAS-G12C/SOS1 were detected. IC50 was used to characterize the inhibitory ability of the compounds on the KRAS-G12C/SOS1. The lower IC50 value indicated the stronger inhibitory ability. BI-3406 was used as a positive control compound.
Experimental reagents: KRASG12C/SOS binding kit (Cisbio, cat. 63ADK000CB16PEG); DMSO (Sigma, cat. D8418-1L); and 384-well white plate (PerkinElmer, cat. 6007290)
• 1. Preparation of compounds: the test compounds were dissolved in 100% DMSO to obtain 10 mM stock solutions and the stock solutions were stored in a refrigerator in the dark. • 2. Kinase reaction process:
Preparation of compounds: the test compounds had the concentration of 5,000 nM and diluted in a 384-well plate into a 100% DMSO solution at the 200-fold final concentration, and the compounds were diluted 3-fold with 10 concentrations. 50 nL of the compounds at the 200-fold final concentration were transferred to the plate of interest, the 384-well plate, using a dispenser Echo 550. 50 nL of 100% DMSO was added to each negative control well and positive control well.
A Tag1-SOS1 solution at the 4-fold final concentration was prepared using a diluent buffer.
2.5 μL of the Tag1-SOS1 solution at the 4-fold final concentration was added to the 384-well plate.
A Tag2-KRAS-G12C solution at the 4-fold final concentration was prepared using the diluent buffer.
2.5 μL of the Tag2-KRAS-G12C solution at the 4-fold final concentration was respectively added into compound wells and the positive control wells; and 2.5 μL of the diluent buffer was added to the negative control wells.
The 384-well plate was centrifuged at 1,000 rpm for 30 seconds, shaken and mixed uniformly, and incubated at room temperature for 15 minutes.
An Anti-Tag1-TB3+ solution at the 1-fold final concentration and an Anti-Tag2-XL665 solution at the 1-fold final concentration were prepared using a detection buffer, the two solutions were mixed uniformly to obtain a Mix solution, and 5 μL of the Mix solution was added into each well.
The 384-well plate was centrifuged at 1,000 rpm for 30 seconds, shaken and mixed uniformly, and incubated at 4° C. for 120 minutes.
Em665/620 was read using an Envision microplate reader.
Inhibition %=(Max signal−Compound signal)/(Max signal−Min signal)×100 Calculation formula • wherein the Min signal was the mean value of the negative control wells, and the Max signal was the mean value of the positive control wells.
A dose-response curve was fitted using the log value of the concentration as an X axis and the percentage of the inhibitory rate as a Y axis by using the log(inhibitor) vs. response-variable slope of an analytical software GraphPadPrism5, thereby obtaining the IC50 value of each compound on an enzyme activity.

Chain of KRAS-G12C/SOS1 (Q07889 whole entry, stated change not applied): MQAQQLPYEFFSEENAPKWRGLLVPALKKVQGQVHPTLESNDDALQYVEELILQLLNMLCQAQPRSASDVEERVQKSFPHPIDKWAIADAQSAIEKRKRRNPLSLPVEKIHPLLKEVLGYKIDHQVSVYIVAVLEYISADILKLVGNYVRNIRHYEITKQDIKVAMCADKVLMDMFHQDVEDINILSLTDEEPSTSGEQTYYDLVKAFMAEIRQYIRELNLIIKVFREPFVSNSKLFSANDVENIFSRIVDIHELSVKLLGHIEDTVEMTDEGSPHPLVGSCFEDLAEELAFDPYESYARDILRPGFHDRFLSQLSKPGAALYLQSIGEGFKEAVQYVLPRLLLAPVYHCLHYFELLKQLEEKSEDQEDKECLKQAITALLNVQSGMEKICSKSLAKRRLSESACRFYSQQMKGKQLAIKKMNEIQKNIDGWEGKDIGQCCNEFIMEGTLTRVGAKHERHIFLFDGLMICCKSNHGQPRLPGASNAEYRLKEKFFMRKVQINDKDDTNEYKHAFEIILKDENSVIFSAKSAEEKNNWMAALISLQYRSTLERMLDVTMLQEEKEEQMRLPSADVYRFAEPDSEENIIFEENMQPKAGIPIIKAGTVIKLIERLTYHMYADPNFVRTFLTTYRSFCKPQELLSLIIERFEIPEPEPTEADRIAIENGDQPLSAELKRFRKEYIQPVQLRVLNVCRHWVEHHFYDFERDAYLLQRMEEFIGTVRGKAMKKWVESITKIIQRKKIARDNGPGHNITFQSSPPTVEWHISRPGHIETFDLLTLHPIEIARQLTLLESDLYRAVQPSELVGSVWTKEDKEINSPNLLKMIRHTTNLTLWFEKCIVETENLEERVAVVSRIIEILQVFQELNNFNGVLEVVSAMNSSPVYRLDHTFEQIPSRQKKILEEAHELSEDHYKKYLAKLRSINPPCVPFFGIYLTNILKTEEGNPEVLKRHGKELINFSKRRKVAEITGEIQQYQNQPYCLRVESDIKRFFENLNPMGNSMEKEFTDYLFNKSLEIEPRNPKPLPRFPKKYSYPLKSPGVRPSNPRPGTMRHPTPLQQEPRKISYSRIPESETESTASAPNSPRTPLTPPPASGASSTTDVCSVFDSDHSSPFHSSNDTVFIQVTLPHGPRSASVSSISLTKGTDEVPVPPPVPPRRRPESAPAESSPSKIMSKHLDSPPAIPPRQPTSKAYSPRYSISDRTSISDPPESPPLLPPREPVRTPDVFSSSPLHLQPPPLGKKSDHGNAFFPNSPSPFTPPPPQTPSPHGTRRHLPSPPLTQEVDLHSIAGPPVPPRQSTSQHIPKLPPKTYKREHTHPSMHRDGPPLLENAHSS

Row | Compound | IC50 (p-ERK of PC-9 cells) | IC50 (KRAS-G12C/SOS1)
1 | C[C@@H](Nc1ccnc2cnc(C3(O)CCN(C(=O)c4cccnc4)CC3)cc12)c1cccc(C(F)F)c1F [Compound B-130] | 300 to 1000 nM | ≤ 100 nM
2 | C[C@@H](Nc1ccnc2cnc(N3CCC(C(=O)O)CC3)cc12)c1cccc(C(F)F)c1F [Compound B-35] | > 1000 nM | ≤ 100 nM
3 | Cc1nc(C2(O)CCN(C(=O)[C@H](C)O)CC2)cc2c(N[C@H](C)c3cccc(C(F)F)c3F)ccnc12 [Compound B-176] | 300 to 1000 nM | ≤ 100 nM
4 | CNCC(=O)N1CCC(O)(c2cc3c(N[C@H](C)c4cccc(C(F)F)c4F)ccnc3cn2)CC1 [Compound B-122] | > 1000 nM | ≤ 100 nM
5 | C[C@@H](Nc1ccnc2cnc(C3(O)CCN(C(=O)CO)CC3)cc12)c1cccc(C#N)c1F [Compound B-167] | > 1000 nM | ≤ 100 nM
6 | C[C@@H](Nc1ccnc2cnc(C3(O)CCN(CCO)CC3)cc12)c1cccc(C#N)c1F [Compound B-168] | > 1000 nM | 100 to 500 nM
7 | CC(=O)N1CCC(O)(c2cc3c(N[C@H](C)c4cccc(C(F)F)c4F)ccnc3c(C)n2)CC1 [Compound B-68] | > 1000 nM | ≤ 100 nM
8 | COc1c(C2=CCN(C(C)=O)CC2)cc2c(N[C@H](C)c3cccc(C(F)F)c3F)ccnc2c1F [Compound A-101] | 300 to 1000 nM | ≤ 100 nM
9 | C[C@@H](Nc1ccnc2cnc(C3(O)CCN(C(=O)N4CC[C@@H](O)C4)CC3)cc12)c1cccc(C(F)F)c1F [Compound B-162] | 300 to 1000 nM | ≤ 100 nM
10 | C[C@@H](Nc1ccnc2cnc(C3(O)CCN(C(=O)C4CCOCC4)CC3)cc12)c1cccc(C(F)F)c1F [Compound B-135] | 300 to 1000 nM | ≤ 100 nM
11 | Cc1nc(C2(O)CCC(O)CC2)cc2c(N[C@H](C)c3cccc(C(F)F)c3F)ccnc12 (stereo partly shown) [Compound B-70] | 300 to 1000 nM | ≤ 100 nM
12 | Cc1nc(N2CCCCS2(=O)=O)cc2c(N[C@H](C)c3cccc(C(F)F)c3F)ccnc12 [Compound B-65] | 300 to 1000 nM | ≤ 100 nM
13 | Cc1cc(N[C@H](C)c2cccc(C(F)F)c2F)c2cc(N3CCCS3(=O)=O)ncc2n1 [Compound B-72] | 300 to 1000 nM | ≤ 100 nM
14 | C[C@@H](Nc1ccnc2cnc(C3(O)CCN(C(=O)c4ccccn4)CC3)cc12)c1cccc(C(F)F)c1F [Compound B-129] | 300 to 1000 nM | ≤ 100 nM
15 | CC(=O)N1C2CCC1CC(O)(c1cc3c(N[C@H](C)c4cccc(C(F)F)c4F)ccnc3c(C)n1)C2 (stereo partly shown) [Compound B-69] | > 1000 nM | ≤ 100 nM
16 | C[C@@H](Nc1ccnc2cnc(N3CC[C@@H](N)C3)cc12)c1cccc(C(F)F)c1F [Compound B-31] | 300 to 1000 nM | ≤ 100 nM
17 | C[C@@H]1OCC2(CCN(c3cc4c(N[C@H](C)c5cccc(C(F)F)c5F)ccnc4cn3)CC2)[C@@H]1N [Compound B-79] | ≤ 300 nM | ≤ 100 nM
18 | CC(=O)N1CCN(c2cc3c(N[C@H](C)c4cccc(C(F)F)c4F)ccnc3cn2)[C@H](CO)C1 [Compound B-47] | ≤ 300 nM | ≤ 100 nM

Second part, the compound after the results:

Row | IC50 (p-ERK of PC-9 cells) | IC50 (KRAS-G12C/SOS1) | Compound
19 | ≤ 300 nM | ≤ 100 nM | C[C@@H](Nc1ccnc2cnc(C3(O)CCC(N(C)C)CC3)cc12)c1cccc(C(F)F)c1F (single isomer, unassigned) [Compound B-94-P2]
20 | ≤ 300 nM | ≤ 100 nM | C[C@@H](Nc1ccnc2cnc(C3(O)CCN(C(=O)N(C)C)CC3)cc12)c1cccc(C(F)F)c1F [Compound B-160]
21 | ≤ 300 nM | ≤ 100 nM | C[C@@H](Nc1ccnc2c(-c3cnn(C)c3)nc(C3(O)CCN(C(=O)CO)CC3)cc12)c1cccc(C(F)F)c1F [Compound B-171]
22 | ≤ 300 nM | ≤ 100 nM | C[C@@H](Nc1ccnc2cnc(C3(O)CCN(C(=O)Cc4cccnc4)CC3)cc12)c1cccc(C(F)F)c1F [Compound B-138]
23 | ≤ 300 nM | ≤ 100 nM | CC(=O)N1CCC(O)(c2cc3c(N[C@H](C)c4cccc(C(F)F)c4F)ccnc3cn2)CC1 [Compound B-17]
24 | ≤ 300 nM | ≤ 100 nM | C[C@@H](Nc1ccnc2cnc(C3(O)CCN(C(=O)C(C)(C)O)CC3)cc12)c1cccc(C(F)F)c1F [Compound B-121]
25 | ≤ 300 nM | ≤ 100 nM | CC(=O)N1CCN(c2cc3c(N[C@H](C)c4cccc(C(F)F)c4F)ccnc3c(C)n2)[C@@H](CO)C1 [Compound B-63]
26 | ≤ 300 nM | ≤ 100 nM | CC(=O)N1CCN(c2cc(F)c3nccc(N[C@H](C)c4cccc(C(F)F)c4F)c3c2)CC1 [Compound A-100]
27 | ≤ 300 nM | ≤ 100 nM | CC(=O)N1CCN(c2cc3c(N[C@H](C)c4cccc(C(F)F)c4F)ccnc3cn2)CC1 [Compound B-23]
28 | ≤ 300 nM | ≤ 100 nM | C[C@@H](Nc1ccnc2cnc(C3(O)CCN(C(=O)COC(F)F)CC3)cc12)c1cccc(C(F)F)c1F [Compound B-141]
29 | ≤ 300 nM | ≤ 100 nM | COCC(=O)N1CCC(O)(c2cc3c(N[C@H](C)c4cccc(C(F)F)c4F)ccnc3cn2)CC1 [Compound B-114]
30 | ≤ 300 nM | ≤ 100 nM | CC(=O)N1CCN(c2cc3c(N[C@H](C)c4cccc(C(F)(F)F)c4)ccnc3cn2)CC1 [Compound B-49]
31 | ≤ 300 nM | ≤ 100 nM | C[C@@H](Nc1ccnc2cnc(C3(O)CCN(C(=O)[C@@H]4CCOC4)CC3)cc12)c1cccc(C(F)F)c1F [Compound B-133]
32 | ≤ 300 nM | ≤ 100 nM | CC(=O)N1CCC(c2cc(F)c3nccc(N[C@H](C)c4cccc(C(F)F)c4F)c3c2)CC1 [Compound A-99]
